The target in test [1] is T1, 5-HT6 receptor (Homo sapiens, UniProt P50406). Briefly: Radioligand binding, 5-HT6 ([3H]-LSD displacement). Particulars: for displacement % at 10^−6M, 5-HT6: values marked c in the 5-HT6 column.
Test [2] has as its system Wistar rats. Briefly: Conflict drinking test (Vogel test) in Wistar rats. The class given is in vivo, rat. To be noted: for Minimum effective dose, conflict drinking (Vogel test) in rats (potential anxiolytic properties): IP, 60 minutes before the test, Wistar rats. The procedure:
(§1) For intraperitoneal (i.p.) administration: to the desired quantity of the solid compound in a glass beaker, required volume of sterile water for injection was added and swirled with glass bar until complete dissolution of the compound.
(§2) Animals. Male Wistar rats weighing 220-250 g were used in the test. […] All animals were kept in an environmentally controlled rooms (ambient temperature 22±2° C; relative humidity 50-60%; 12:12 light:dark cycle, lights on at 8:00). They were allowed to acclimatize with the environment for one week before commencement of the experiments. Standard laboratory food (Ssniff M-Z) and filtered water were freely available. The experiments were conducted in the light phase between 09.00 and 14.00 hours. 1 h before the start of the experiment, rats were transferred to the experimental room for acclimation.
Apparatus and procedure. […] Experimental chambers were connected to PC software by control chassis and electric shocks' generator. On the first day of the experiment, the rats were adapted to the test chambers for 10 min. […] Afterwards, they were allowed a 30-min free-drinking session in their home cages. […] Recording data started immediately after the first lick and every 20 licks rats were punished with an electric shock (0.5 mA, lasting 1 s). The impulses were released via the spout of the drinking bottles. If a rat was drinking when an impulse was released, it received a shock. The number of licks and the number of shocks received during a 5-min experimental session was recorded automatically.
(§3) Experimental design. The compounds were administered IP, 60 minutes before the test.
(§4) Drugs. The experimental compounds were dissolved in the distilled water. All compounds were administrated in the volume of 2 ml/kg.

Test [3] deals with dopamine D2L receptor (Homo sapiens, UniProt P14416). Briefly: Radioligand binding, D2 ([3H]-raclopride displacement).
Sequence of dopamine D2L receptor (P14416 whole entry): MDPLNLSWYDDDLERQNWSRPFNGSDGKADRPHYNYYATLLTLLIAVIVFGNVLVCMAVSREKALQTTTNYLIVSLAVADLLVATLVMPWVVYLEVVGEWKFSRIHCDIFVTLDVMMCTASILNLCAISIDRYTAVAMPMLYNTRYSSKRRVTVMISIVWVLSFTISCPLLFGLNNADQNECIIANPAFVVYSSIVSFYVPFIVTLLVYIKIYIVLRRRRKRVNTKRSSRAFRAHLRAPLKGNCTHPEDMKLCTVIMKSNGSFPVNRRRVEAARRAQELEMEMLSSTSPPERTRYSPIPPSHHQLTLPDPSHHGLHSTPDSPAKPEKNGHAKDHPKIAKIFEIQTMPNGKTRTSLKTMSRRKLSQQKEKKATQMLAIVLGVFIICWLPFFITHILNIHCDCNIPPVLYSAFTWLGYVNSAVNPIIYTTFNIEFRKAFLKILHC
Test [4] concerns the target T2, 5-HT1A receptor (Homo sapiens, UniProt P08908).
T2 sequence (P08908 1-422): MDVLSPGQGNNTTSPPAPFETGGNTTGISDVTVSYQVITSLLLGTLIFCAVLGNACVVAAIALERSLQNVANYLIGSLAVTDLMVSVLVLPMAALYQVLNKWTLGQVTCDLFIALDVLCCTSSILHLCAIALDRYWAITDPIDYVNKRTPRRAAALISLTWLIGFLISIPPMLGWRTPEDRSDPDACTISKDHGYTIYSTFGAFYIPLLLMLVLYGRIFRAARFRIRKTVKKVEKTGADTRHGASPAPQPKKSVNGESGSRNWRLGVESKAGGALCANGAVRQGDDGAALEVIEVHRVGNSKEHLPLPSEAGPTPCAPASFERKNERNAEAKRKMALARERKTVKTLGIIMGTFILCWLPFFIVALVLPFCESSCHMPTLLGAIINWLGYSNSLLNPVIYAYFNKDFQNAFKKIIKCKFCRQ
Briefly: Radioligand binding, 5-HT1A ([3H]-8-OH-DPAT displacement).

The target in test [5] is 5-HT7 receptor (Homo sapiens, UniProt P34969). Briefly: Radioligand binding, 5-HT7 ([3H]-5-CT displacement).
Sequence of 5-HT7 receptor (P34969 1-432 limits assumed): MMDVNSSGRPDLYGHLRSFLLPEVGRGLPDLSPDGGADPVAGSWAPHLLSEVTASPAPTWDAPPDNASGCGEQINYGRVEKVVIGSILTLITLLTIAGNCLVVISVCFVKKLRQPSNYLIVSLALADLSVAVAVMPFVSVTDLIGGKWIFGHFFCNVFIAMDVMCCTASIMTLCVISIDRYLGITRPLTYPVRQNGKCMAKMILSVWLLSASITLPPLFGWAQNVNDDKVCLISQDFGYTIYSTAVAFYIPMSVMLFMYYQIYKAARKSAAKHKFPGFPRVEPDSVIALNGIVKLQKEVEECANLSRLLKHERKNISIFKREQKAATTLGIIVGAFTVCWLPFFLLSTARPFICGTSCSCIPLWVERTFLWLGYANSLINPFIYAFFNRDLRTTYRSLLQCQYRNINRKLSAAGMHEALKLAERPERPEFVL
The target of test [6] is T1, 5-HT6 receptor. Briefly: CHO-human-5HT6-Aequorin functional assay (ago-/antagonism). Particulars: test concentration not given; for % inhibition of control agonist response: agonist effect, CHO-human-5HT6-Aequorin cells; for % inhibition of control antagonist response: antagonist effect vs 10^-6 M α-methylserotonin induced luminescence.
For test [7], the system named is Wistar rats. Briefly: Forced swim test (FST) in Wistar rats. It counts as in vivo, rat. To be noted: IP, 60 minutes before the test; Wistar rats. The method, then: as §1, §2
Apparatus and procedure. […] On the first day of experiment, the animals were gently individually placed in Plexiglas cylinders (40 cm high, 18 cm in diameter) containing 15 cm of water maintained at 25° C. for 15 min. Upon removal from water, the rats were placed in a Plexiglas box for 30 min under a 60-W bulb to dry off. On the following day, the rats were placed again in the cylinder and the total duration of immobility was recorded throughout the 5-min test period. Fresh water was used for each animal.
as §3, §4

Where [8] appears, read: read-out: Ki 5-HT1A, cloned human receptor in HEK293, three independent experiments, SEM ± 22%.
[9] abbreviates: read-out: Ki 5-HT6, cloned human receptor in HEK293, three independent experiments, SEM ± 22%.

Where two headings read alike, the source gives them in different places. Marks after values point to notes of the source that are not given here. Some results are limits rather than exact numbers.

T1 sequence (P50406 whole entry): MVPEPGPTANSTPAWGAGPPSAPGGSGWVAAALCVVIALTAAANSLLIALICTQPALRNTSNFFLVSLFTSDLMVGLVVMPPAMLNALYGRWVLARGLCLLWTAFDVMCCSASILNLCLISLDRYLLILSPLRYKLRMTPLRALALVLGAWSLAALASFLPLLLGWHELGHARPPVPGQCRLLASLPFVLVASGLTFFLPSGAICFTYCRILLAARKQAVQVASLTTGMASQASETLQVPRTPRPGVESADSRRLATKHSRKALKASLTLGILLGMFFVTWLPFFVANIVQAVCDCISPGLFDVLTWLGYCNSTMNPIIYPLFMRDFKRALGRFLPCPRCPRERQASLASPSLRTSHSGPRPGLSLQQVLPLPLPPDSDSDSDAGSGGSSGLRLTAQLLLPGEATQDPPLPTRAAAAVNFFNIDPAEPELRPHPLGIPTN

Turning to `O=S(=O)(c1cccc(F)c1)n1ccc2c(N[C@@H]3CCNC3)nc3ccccc3c21` [Compound 10, (R)-1-((3-fluorophenyl)sulfonyl)-N-(pyrrolidin-3-yl)-1H-pyrrolo[3,2-c]quinolin-4-amine], the “displacement % at 10^−6M, 5-HT6” value in test [1] is listed as 100^c %. The “Minimum effective dose, conflict drinking (Vogel test) in rats (potential anxiolytic properties)” value in test [2] turned out to be 10 mg/kg.
A word on the Ki: it is the equilibrium dissociation constant of an inhibitor or competing ligand from its target. With `O=S(=O)(c1cccc2ccccc12)n1ccc2c(NC3CCNC3)nc3ccccc3c21` (stereo not drawn) [Compound 21, 1-(naphthalen-1-ylsulfonyl)-N-(pyrrolidin-3-yl)-1H-pyrrolo[3,2-c]quinolin-4-amine], the inhibition constant (Ki) worked out at 2260 nM in test [3], 19 nM in test [1], 5330 nM in test [4] and 1420 nM in test [5]. Moreover, the “% inhibition of control agonist response” value in test [6] was determined as 10.6%. In addition, in test [6], the “% inhibition of control antagonist response” value is 60.0%.
As to `O=S(=O)(c1cccc2cccnc12)n1ccc2c(NC3CCNC3)nc3ccccc3c21` (stereo not drawn) [Compound 22, 1-(quinolin-8-ylsulfonyl)-N-(pyrrolidin-3-yl)-1H-pyrrolo[3,2-c]quinolin-4-amine], the Ki came to 6400 nM in test [3], 4 nM in test [1], 15200 nM in test [4] and 18500 nM in test [5]. Moreover, the “% inhibition of control agonist response” value in test [6] is reported as 16.4%. Besides, in test [6], the “% inhibition of control antagonist response” value amounted to 70.2%.
For `O=S(=O)(c1cccc(F)c1)n1ccc2c(N3CCNCC3)nc3ccccc3c21` [Compound 30, 1-((3-fluorophenyl)sulfonyl)-4-(piperazin-1-yl)-1H-pyrrolo[3,2-c]quinoline], in test [2], the “Minimum effective dose, conflict drinking (Vogel test) in rats (potential anxiolytic properties)” value stood at 10 mg/kg. Besides, the Ki in test [4] (setting [8]) turned out to be 437 nM. Moreover, the “Minimum effective dose, forced swim test in rats (potential antidepressant properties)” value in test [7] amounted to 10 mg/kg.
In the case of `N#Cc1cccc(S(=O)(=O)n2ccc3c(N4CCNCC4)nc4ccccc4c32)c1` [Compound 38, 1-((3-cyanophenyl)sulfonyl)-4-(piperazin-1-yl)-1H-pyrrolo[3,2-c]quinoline], the Ki in test [3] worked out at 4690 nM; in test [1] it was 14 nM; in test [4], 218 nM; in test [5] it was 2390 nM. Moreover, the “% inhibition of control agonist response” value in test [6] worked out at 7.0%. In test [6], the “% inhibition of control antagonist response” value is reported as 61.3%.
In the case of `CC(C)c1ccc(S(=O)(=O)n2ccc3c(N4CCNCC4)nc4ccccc4c32)cc1` [Compound 40, 1-((4-isopropylphenyl)sulfonyl)-4-(piperazin-1-yl)-1H-pyrrolo[3,2-c]quinoline], the inhibition constant Ki came out at 2540 nM in test [3], 14 nM in test [1] (setting [9]), 148 nM in test [4] and 3260 nM in test [5]. Moreover, in test [6], the “% inhibition of control agonist response” value was −5.2%. Moreover, in test [6], the “% inhibition of control antagonist response” value amounted to 65.3%.
As to `Nc1ccc(S(=O)(=O)n2ccc3c(N4CCNCC4)nc4ccccc4c32)cc1` [Compound 42, 1-(4-(aminophenyl)sulfonyl)-4-(piperazin-1-yl)-1H-pyrrolo[3,2-c]quinoline], the “displacement % at 10^−6M, 5-HT6” value in test [1] was 97^c %. Further, the “Minimum effective dose, conflict drinking (Vogel test) in rats (potential anxiolytic properties)” value in test [2] was found to be 3 mg/kg. In test [7], the “Minimum effective dose, forced swim test in rats (potential antidepressant properties)” value is given as 0.1 mg/kg.
With `O=S(=O)(c1cccc2cccnc12)n1ccc2c(N3CCNCC3)nc3ccccc3c21` [Compound 45, 1-(quinolin-8-ylsulfonyl)-4-(piperazin-1-yl)-1H-pyrrolo[3,2-c]quinoline], the Ki in test [3] stood at 6340 nM; in test [1], 5 nM; in test [4] it was 922 nM; in test [5], 7810 nM. Further, the “% inhibition of control agonist response” value in test [6] is reported as 7.8%. For the same compound, in test [6], the “% inhibition of control antagonist response” value is 75.8%.
As for `Cc1c(S(=O)(=O)n2ccc3c(N4CCNCC4)nc4ccccc4c32)sc2ccc(Cl)cc12` [Compound 48, 1-((5-chloro-3-methylbenzo[b]thiophen-2-yl)sulfonyl)-4-(piperazin-1-yl)-1H-pyrrolo[3,2-c]quinoline], the Ki came to 190 nM in test [3], 16 nM in test [1], 1470 nM in test [4] and 8820 nM in test [5]. In test [6], the “% inhibition of control agonist response” value is listed as 2.7%. The “% inhibition of control antagonist response” value in test [6] is reported as 37.7%.
As for `CN1CCN(c2nc3ccccc3c3c2ccn3S(=O)(=O)c2cccc3cccnc23)CC1` [Compound 59, 1-(quinolin-8-ylsulfonyl)-4-(4-methylpiperazin-1-yl)-1H-pyrrolo[3,2-c]quinolone], the inhibitory constant (Ki) in test [3] (read-out: Ki D2, cloned human receptor in HEK293, three independent experiments, SEM ± 22%) was 1920 nM; in test [1] (setting [9]), < 1 nM; in test [4] (setting [8]), 208 nM; in test [5] (read-out: Ki 5-HT7, cloned human receptor in HEK293, three independent experiments, SEM ± 22%) it was 7690 nM. In test [6], the “% inhibition of control agonist response” value worked out at 16.9%. For the same compound, the “% inhibition of control antagonist response” value in test [6] is reported as 61.0%.
Turning to `O=S(=O)(c1cccc(Cl)c1)n1ccc2c(N3CCOCC3)nc3ccccc3c21` [Compound 78, 1-((3-chlorophenyl)sulfonyl)-4-(morpholine-4-yl)-1H-pyrrolo[3,2-c]quinoline], the Ki is 37200 nM in test [3], 157 nM in test [1], 457000 nM in test [4] and 20100 nM in test [5]. In test [6], the “% inhibition of control agonist response” value is given as 21.3%. The “% inhibition of control antagonist response” value in test [6] worked out at 23.8%.
Consider `CN1C(=O)CN=C(c2ccccc2)c2cc(Cl)ccc21` [diazepam, reference compound], for which the “active dose in the conflict drinking test (Vogel test), increasing number of licks and shocks received” value in test [2] (rats) lay in the range of 5 to 10 mg/kg.

For the origin of these results see patent US20170239237A1, “PYRROLOQUINOLINE DERIVATIVES AS 5-HT6 ANTAGONISTS, PREPARATION METHOD AND USE THEREOF” (Uniwersytet Jagiellonski, priority 2013, published 2017).
